Measurements from US20250129012A1, “ANTI-INFLAMMATORY AND ANALGESIC COMPOUNDS AND USE THEREOF” (JIANGSU ATOM BIOSCIENCE AND PHARMACEUTICAL CO., LTD., priority 2021, published 2025).
Read-outs that look alike come from different tables or passages of the source. Marks after values point to notes of the source that are not given here.

Columns and labels:
[1] = system: novel coronavirus infection; conditions: cited from earlier work
[2] = In vivo pharmacokinetics in SD rats; conditions: for AUC(0-inf): read-out: AUCINF; for MRT inf: read-out: MRTINF
Method in brief: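 SD rats received compound intravenously (0.5 mg/mL solution) or by oral gavage (1 mg/mL, fasted overnight), both formulated in DMSO/Solutol HS15/saline. Plasma compound concentrations were measured by LC/MS/MS. Non-compartmental parameters were then calculated.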

[3] = system: IL-1β; assay: Inflammatory factor experiment B: IL-1β in knee synovial tissue (ELISA); assay type: in vivo, SD rats
[4] = system: gouty arthritis in rats (urate crystals, left ankle joint); assay: Pharmacodynamics experiment A on gouty arthritis in rats: paw volume; assay type: in vivo, SD rats; conditions: for Paw volume: Mean ± SEM
Protocol: Compounds 2, 17, 26 and 27 were prepared by grinding with 0.5% CMC-Na into a suspension of the corresponding concentration (0.06 mg/mL) for gavage before administration, and the volume of administration was 10 mL/kg. […] Before use, 0.5% CMC-Na was used for grinding and prepared into a suspension of the corresponding concentration (0.06 mg/mL) for gavage, and the volume of drug administered was 10 mL/kg.
Each group of subjects was prepared into a suspension of the corresponding concentration, and the administration volume was 10 mL/kg.
The crystalline arthritis model was prepared by intra-articular injection of urate crystals (40 mg/mL, in the left ankle joint of each rat). Different doses of the test drug were given separately by gavage administration. The day of administration was defined as day 1 of the experiment, and the drug was administered once a day for 10 consecutive days (pre-administration of the drug for 7 days prior to modeling, modeling on day 8, and continuation of the drug for 3 days). The experiment ended on day 10.
Paw volume was measured before administration, before urate injection, and 2, 4, 8, 10, 24, and 48 h after injection.
The data obtained from the experiment were statistically analyzed using IBM SPSS Statistics 22.0. All measurements were expressed as Mean±S.E.M s. The data were analyzed using SPSS 22.0 statistical software and variance chi-square test was performed on the parameters.

[5] = system: ICR mice; assay: Acute toxicity test in mice by single administration; assay type: in vivo; conditions: single gavage dose 50 mg/kg; 14 days; deaths/animals
Protocol: (§1) Compounds 34, 48, 55 and 58 were ground with 0.5% CMC-Na before administration, and prepared into a suspension of the corresponding concentration for gavage, with an administration volume of 0.1 mL/10 g.
(§2) ICR mice, SPF grade, weighing 18-20 g, 6-8 weeks old, were provided by Nantong University. The Laboratory Animal Production License was SCXK (Su) 2016-0010 and Laboratory Animal Use License was SYXK (Su) 2017-0035.
(§3) After overnight fasting, the drug was administered once by gavage in a volume of 0.1 mL/10 g. The normal group was given the corresponding volume of 0.5% CMC-Na solution according to body weight. The state of the animal was observed after administration, the animals were weighed daily and the number of deaths was recorded for 14 consecutive days.

[6] = as above; assay type: in vivo, ICR mice; conditions: both sexes, ICR, mouse, in vivo, po; acute toxicity, mice, single gavage; read-out: Maximum tolerated dose (MTD)
Protocol: as §1, §2, §3

[7] = 4,159 patients with nasopharyngeal nucleic acid test
[8] = Sprague-Dawley, rat, in vivo, po, Gavage - 10 mg/kg
[9] = Sprague-Dawley, rat, in vivo, Intravenous injection - 1 mg/kg

For `COc1cc2c(c(OC)c1OC)-c1ccc(OC)c(=O)cc1[C@@H](NC(C)=O)CC2` [colchicine, reference compound], the “Reduction of hospital admissions” value [1, 7] is given as 25%, the “Reduction of need for respiratory equipment” value [1, 7] is given as 50% and the “Reduction of number of deaths” value [1, 7] is given as 44%. For the same compound, the “Lower risk of hospitalization or death compared with placebo” value ([1]; 4,488 non-hospitalized patients) was 21%, the F ([2]; Gavage - 10 mg/kg, calculated by AUCINF) was 8.73% and the AUC(0-inf) [2, 8] was 735 ng·h/mL. The Cmax ([2]; Sprague-Dawley, rat, in vivo, po, Gavage - 10 mg/kg, read-out: Cmax) was 175 ng/mL, the MRT inf [2, 8] was 25.7 h and the Tmax ([2]; Sprague-Dawley, rat, in vivo, po, Gavage - 10 mg/kg, read-out: Tmax) was 0.417 h. For the same compound, the AUC(0-inf) [2, 9] was 567 ng·h/mL, the clearance ([2]; Sprague-Dawley, rat, in vivo, Intravenous injection - 1 mg/kg, read-out: CL (converted)) was 31.8 mL/min/kg and the MRT inf [2, 9] was 11 h. For the same compound, the Vd ([2]; Sprague-Dawley, rat, in vivo, Intravenous injection - 1 mg/kg, read-out: VSS) was 17.6 L/kg, the inhibition in vivo at 0.6 mg/kg ([3]; Rattus norvegicus, po, synovial tissue of knee joints, 48 h after modeling, dose 0.6 mg/kg, read-out: IL-1β percentage decrease %) was 74.2% and the inhibition in vivo at 1.2 mg/kg ([3]; Rattus norvegicus, po, synovial tissue of knee joints, 48 h after modeling, dose 1.2 mg/kg (high dose group), read-out: IL-1β percentage decrease %) was 63.1%. The “IL-1β level after modeling, in words” value ([3]; compounds 0.6 mg/kg, colchicine 0.6 and 1.2 mg/kg) was “reduced IL-1β in synovial tissue”, the “Paw volume versus model group, in words” value ([4]; 0.6 mg/kg gavage, time points after modeling) was “significantly smaller than those in the model group at 2 h, 4 h, 8 h, 10 h, and 48 h after modeling” and the Paw volume ([4]; 2 h after modeling, 0.6 mg/kg gavage) was 2.44 ± 0.02*** cm^3. The Paw volume ([4]; 4 h after modeling, 0.6 mg/kg gavage) was 2.45 ± 0.03** cm^3, the Paw volume ([4]; 8 h after modeling, 0.6 mg/kg gavage) was 2.44 ± 0.04*** cm^3 and the Paw volume ([4]; 10 h after modeling, 0.6 mg/kg gavage) was 2.46 ± 0.04** cm^3. For the same compound, the Paw volume ([4]; 24 h after modeling, 0.6 mg/kg gavage) was 2.46 ± 0.05 cm^3, the Paw volume ([4]; 48 h after modeling, 0.6 mg/kg gavage) was 2.24 ± 0.03*** cm^3 and the Paw volume ([4]; before modeling, 0.6 mg/kg gavage once a day) was 2.18 ± 0.03 cm^3. The Mortality rate [5] was 3/6 and the MTD at 14 days [6] was under 50 mg/kg.
